Data reported in patent US5892029A, “3-hydroxy-2(1H)-pyridinone chelating agents” (priority 1997, dated 1999).
Entries after “also recorded” stand apart in the source; their conditions may differ. Where two headings read alike, the source gives them in different places.

Assays:
[1] = assay type: in vivo, mice; settings: for body weight / kidney weight / plasma urea N: mean ± SD; for toxicity / mortality (in words): mouse, in vivo
Protocol: The test of acute toxicity of these novel ligands was carried out as follows. […] The ligand was dissolved in 0.5 to 1.0 ml of saline at pH 7 to 8. After a period of observation, the mice were killed, selected tissues were removed and fixed for histopathological examination,and unusual findings at autopsy were recorded.

[2] = Promoting excretion of 238Pu(IV) in mice by injected ligands (Table 3); assay type: in vivo; settings: 30 μmol/kg i.p.
Description: (§1) Animal studies were completed using methods detailed in Radiation Protection Dosimetry, 1994, 53, 305: P. W. Durbin et al., "In Vivo Chelation of Am(III), Pu(IV), Np(V) and U(VI) in Mice by TREN-(Me-3,2-HOPO)"; Radiation Protection Dosimetry, 1989, 17, 351: P. W. Durbin et al., "Removal of ^238 Pu(IV) from Mice by Polycatechoylate, -Hydroxamate or -Hydroxypyridinonate Ligands"; Radiation Research, 1984, 99, 85: P. W. Durbin et al., "Specific Sequestering Agents for the Actinides . . . "; Radiation Research, 1984, 99, 106: P. W. Durbin et al., "Removal of Pu and Am from Beagles and Mice . . . "; Radiation Research, 1980, 81, 170: R. D. Lloyd et al., and P. W. Durbin et al., "Specific Sequestering Agents for the Actinides . . . ". The foregoing articles are hereby incorporated by reference.
(§2) Radionuclides used in the animal studies came from a variety of sources. The ^238 Pu(IV) citrate and ^241 Am(III) citrate solutions were prepared for animal injection by 8- to 10-fold dilution with 0.14M NaC1 (pH 4) of concentrated stock solutions (0.08M sodium citrate buffer) that had been held in frozen storage at Lawrence Berkeley Laboratory (hereinafter LBL) for several years. [The ^238 Pu(IV) was originally obtained from D. R. Atherton at the University of Utah Radiobiology Laboratory, Salt Lake City. The ^241 Am(III) solution had been obtained many years earlier from the LBL Actinide Chemistry group.]
The novel chelating agents of the present invention were tested for their effectiveness in promoting excretion of ^238 Pu(IV) in mice by injected ligands as follows. Mice, in groups of five, each received an intravenous injection of 1850 Bq^238 Pu(IV) in 0.2 mL of citrate buffer. One hour later, 30 μmol/kg of ligand was injected intraperitoneally in 0.5 mL of saline. The mice were killed 24 hours after the Pu injection, frozen, and dissected after partial thawing. The ^238 Pu in skeleton, soft tissues, and separated excreta was determined by counting the ^234 U L x-rays. […]

[3] = Promoting excretion of U(VI) in mice by injected ligands (Table 5); assay type: in vivo; settings: 30 μmol/kg i.p. at 3 to 5 min after actinide i.v.
Description: as §1
The ^232 U was obtained from the Isotope Products Laboratory, Burbank, Calif., and ^234,235 U was obtained as U metal from long-held LBL storage. The two U sources were combined and dissolved in 6N HNO3, dried, and redissolved in 0.1N HCl. The daughter radioactivities were removed by elution from a Dowex-50X4 column (22 cm length, 0.7 cm diameter, 1.5 mL min^-1 flow rate) with 3.2N HCl. The U fractions (previously identified by a trial run with ^234,235 U alone) were combined, dried, and redissolved in 0.14M NaCl at pH 5.5.
(§3) One of the novel chelating agents of the present invention, TREN-Me-3,2-HOPO, was also tested for effectiveness in promoting excretion of ^241 AM(III), ^237 Np(V), and ^232 U(VI) by injection into mice, as follows: Mice, in groups of five, each received an intravenous injection of (a) 1100 Bq of ^241 Am(III) in 0.2 mL of citrate buffer, (b) 150 Bq of ^232 UO2 Cl2 plus 3.6 mg of ^235 UO2 Cl2 in 0.2 mL of saline, or (c) 200 Bq of ^237 NpO2 Cl ([…] of ^237 NPO2 Cl) in 0.2 mL of saline. Three to five minutes later, 30 μmol/kg of TREN-Me-3,2-HOPO was injected intraperitoneally in 0.5 mL of saline. The mice were killed 24 hours after the actinide injection, frozen, and dissected after partial thawing. The skeleton, soft tissues, and separated excreta were radioanalyzed by counting the ^241 Am gamma rays, or the alpha particles emitted by ^237 Np or ^232 U (and its ingrowing daughters). Removal of those actinides from mice by injected TREN-Me-3,2-HOPO is summarized in Table 5, which also includes data for mice similarly treated with CaNa3 -DTPA and for actinide-injected controls. […] The structure of Am(III)-TREN-Me-3,2-HOPO is considered to resemble that of the Gd(III) complexes (see Example 20). Complexation of the fraction of Np(V) that is reduced in vivo to Np(IV) is considered to resemble that of Pu(IV). Complexation of U(VI) is considered to take place through binding to UO2^2+.
(§4) ^a Ligands (30 μmol/kg) i.p. at 3 to 5 min after actinide i.v.;

[4] = Promoting excretion of 241Am(III) in mice by injected ligands (Table 5); assay type: in vivo; settings: 30 μmol/kg i.p. at 3 to 5 min after actinide i.v.
Description: as §1, §2, §3, §4

[5] = Promoting excretion of 237Np(V) in mice by injected ligands (Table 5); assay type: in vivo; settings: 30 μmol/kg i.p. at 3 to 5 min after actinide i.v.
Description: as §1
The ^237 Np(V) was obtained from J. Bucher of the LBL Actinide Chemistry group as NpO2 Cl in 0.1M HCl. It was diluted to the desired radioactivity concentration in 0.14M NaCl and the pH was adjusted to about 4.5 with NaOH just before use.
as §3, §4

[6] = 30 μmol/kg i.p. at 1 h; reported previously (footnote e); cited from earlier work
[7] = Fe(III); background; cited from earlier work
[8] = Gd3+ complex stability in aqueous solution; assay type: binding
[9] = protocol I: 100 μmol/kg × 10 daily i.p., 11 d
[10] = protocol I: 100 μmol/kg × 10 daily i.p., 11 d, of 5 mice
[11] = protocol I: 100 μmol/kg × 10 daily i.p., 21 d
[12] = protocol I: 100 μmol/kg × 10 daily i.p., 21 d, of 5 mice
[13] = protocol II: 500 μmol/kg × 2 in 8 h i.p., 11 d
[14] = protocol II: 500 μmol/kg × 2 in 8 h i.p., 11 d, of 5 (5-LI) or 10 (5-LI-O) mice

Compound: Cn1ccc(C(=O)NCCCCNC(=O)c2ccn(C)c(=O)c2O)c(O)c1=O [4-LI-Me-3,2-HOPO, 1,4-bis[(3-hydroxy-1-methyl-2-oxo-1,2-dihydro-pyridin-4-yl)carboxamido]butane]
- body weight ([1]; protocol IB: 100 μmol/kg, 5 d): 85 ± 8 percent control
- kidney weight ([1]; protocol IB: 100 μmol/kg, 5 d): 190 ± 63 percent control
- plasma urea N ([1]; protocol IB: 100 μmol/kg, 5 d): > 2000 percent control
- no. of survivors ([1]; protocol IB: 100 μmol/kg, 5 d, of 3 mice): 0
- effectiveness of Pu removal, injected (in words) [2]: as effective or more effective than the hexadentate and octadentate chelating agents

Compound: Cn1ccc(C(=O)NCCCCCNC(=O)c2ccn(C)c(=O)c2O)c(O)c1=O [5-LI-Me-3,2-HOPO, 1,5-bis[(3-hydroxy-1-methyl-2-oxo-1,2-dihydro-pyridin-4-yl)carboxamido]pentane]
- toxicity / mortality (in words) [1]: low toxicity
- body weight [1, 9]: 102 ± 5 percent control
- kidney weight [1, 9]: 109 ± 14 percent control
- plasma urea N [1, 9]: 89 ± 1 percent control
- no. of survivors [1, 10]: 5
- body weight [1, 11]: 102 ± 5 percent control
- kidney weight [1, 11]: 100 ± 4 percent control
- plasma urea N [1, 11]: 101 ± 2 percent control
- no. of survivors [1, 12]: 5
- body weight [1, 13]: 99 ± 3 percent control
- kidney weight [1, 13]: 109 ± 9 percent control
- plasma urea N [1, 13]: 98 ± 18 percent control
- no. of survivors [1, 14]: 5
- effectiveness of Pu removal, injected (in words) [2]: as effective or more effective than the hexadentate and octadentate chelating agents

Compound: Cn1ccc(C(=O)NCCOCCNC(=O)c2ccn(C)c(=O)c2O)c(O)c1=O [5-LI-O-Me-3,2-HOPO, 1,5-bis[(3-hydroxy-1-methyl-2-oxo-1,2-dihydro-pyridin-4-yl)carboxamido]-3-oxypentane]
- toxicity / mortality (in words) [1]: low toxicity
- body weight [1, 9]: 103 ± 5 percent control
- kidney weight [1, 9]: 100 ± 19 percent control
- plasma urea N [1, 9]: 83 ± 5 percent control
- no. of survivors [1, 10]: 5
- body weight [1, 11]: 101 ± 5 percent control
- kidney weight [1, 11]: 111 ± 5 percent control
- plasma urea N [1, 11]: 86 ± 18 percent control
- no. of survivors [1, 12]: 5
- body weight [1, 13]: 100 ± 2 percent control
- kidney weight [1, 13]: 108 ± 10 percent control
- plasma urea N [1, 13]: 77 ± 10 percent control
- no. of survivors [1, 14]: 110
- effectiveness of Pu removal, injected (in words) [2]: as effective or more effective than the hexadentate and octadentate chelating agents

Compound: O=C(O)CN(CCN(CC(=O)O)CC(=O)O)CCN(CC(=O)O)CC(=O)O [CaNa3 -DTPA, reference compound]
- U(VI) in kidneys at 24 h [3]: 17 ± 2.8% of injected actinide
- U(VI) in liver at 24 h [3]: 1.0% of injected actinide
- U(VI) in skeleton at 24 h [3]: 19 ± 3.0% of injected actinide
- U(VI) in whole body at 24 h [3]: 38 ± 0.7% of injected actinide
- U(VI) combined excreta ([3]; combined excreta (footnote f)): 62% of injected actinide
- Am(III) in liver at 24 h [4]: 13 ± 1.5% of injected actinide
- Am(III) in skeleton at 24 h [4]: 8.5 ± 0.9% of injected actinide
- Am(III) in soft tissue at 24 h [4]: 1.9 ± 0.3% of injected actinide
- Am(III) in whole body at 24 h [4]: 24 ± 1.3% of injected actinide
- Am(III) excreta: feces and GI contents ([4]; pooled): 8.0% of injected actinide
- Am(III) excreta: urine 0-24 h ([4]; pooled): 68% of injected actinide
- Am(III) in kidneys at 24 h ([4]; pooled): 0.4% of injected actinide
- Np(V) in liver at 24 h [5]: 14 ± 5.7% of injected actinide
- Np(V) in skeleton at 24 h [5]: 40 ± 4.4% of injected actinide
- Np(V) in soft tissue at 24 h [5]: 3.5 ± 0.9% of injected actinide
- Np(V) in whole body at 24 h [5]: 58 ± 8.0% of injected actinide
- Np(V) excreta: feces and GI contents ([5]; pooled): 1.5% of injected actinide
- Np(V) excreta: urine 0-24 h ([5]; pooled): 40% of injected actinide
- Np(V) in kidneys at 24 h ([5]; pooled): 1.3% of injected actinide
- 238Pu excreta: feces and GI contents [6]: 5.1% of injected ^238 Pu
- 238Pu excreta: urine 0-24 h [6]: 61% of injected ^238 Pu
- 238Pu in kidneys at 24 h [6]: 1.1% of injected ^238 Pu
- 238Pu in liver at 24 h [6]: 17 ± 4.0% of injected ^238 Pu
- 238Pu in skeleton at 24 h [6]: 12 ± 2.3% of injected ^238 Pu
- 238Pu in soft tissue at 24 h [6]: 3.5 ± 1.6% of injected ^238 Pu
- 238Pu in whole body at 24 h [6]: 33 ± 6.6% of injected ^238 Pu

Compound: O=C(N[C@H]1COC(=O)[C@@H](NC(=O)c2cccc(O)c2O)COC(=O)[C@@H](NC(=O)c2cccc(O)c2O)COC1=O)c1cccc(O)c1O [enterobactin]
- formation constant Kf [7]: ≈ 10^49
- pM [7]: 35.5

Compound: Gadolinium (III) Ion Complex with N,N,N,-Tris[(3-hydroxy-1-methyl-2-oxo-1,2-dihydropyridin-4-yl)carboxamidoethyl]-amine [Gd(III)-TREN-3,2-HOPO complex]
- pM value for Gd^3+ [8]: 19
- formation constant log β110 ([8]; aqueous solution): 20.3
- stability of the complex (in words) ([8]; aqueous solution): very stable in aqueous solution; also recorded: substantially more stable than any of the Gd^3+ MRI agents in current clinical use
